# Test results taken from the supplement of paper PMC10307832.
# Experiments:
# Assay in all cases: relative viability (nuclei count vs DMSO), 5 days (fraction); higher = more cells survive
# NCI-H1792 = test system: NCI-H1792
# How it was run: (§1)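 Five library-drug doses in √10 steps were combined with a fixed anchor-drug dose, or a single drug was given alone, by pin tool to lung cancer cell lines in 1536-well plates the day after seeding. Nuclei were stained and counted after 5 days. Relative viability is the nuclei count in treated wells over that in vehicle wells, taken as the median of duplicate plates.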
# ChaGo-K-1 = test system: ChaGo-K-1
# How it was run: as §1
# HCC-366 = test system: HCC-366
# How it was run: as §1
# NCI-H2405 = test system: NCI-H2405
# How it was run: as §1
# NCI-H460 = test system: NCI-H460
# How it was run: as §1
# LCLC-97TM1 = test system: LCLC-97TM1
# How it was run: as §1
# NCI-H1734 = test system: NCI-H1734
# How it was run: as §1
# COR-L23 = test system: COR-L23
# How it was run: as §1
# SK-LU-1 = test system: SK-LU-1
# How it was run: as §1
# HCC-78 = test system: HCC-78
# How it was run: as §1
# LK-2 = test system: LK-2
# How it was run: as §1
# NCI-H1355 = test system: NCI-H1355
# How it was run: as §1
# 201T = test system: 201T
# How it was run: as §1
# NCI-H2085 = test system: NCI-H2085
# How it was run: as §1
# NCI-H1993 = test system: NCI-H1993
# How it was run: as §1
# NCI-H838 = test system: NCI-H838
# How it was run: as §1
# HARA = test system: HARA
# How it was run: as §1
# NCI-H520 = test system: NCI-H520
# How it was run: as §1
# NCI-H3122 = test system: NCI-H3122
# How it was run: as §1
# NCI-H1975 = test system: NCI-H1975
# How it was run: as §1
# HCC-15 = test system: HCC-15
# How it was run: as §1
# NCI-H1650 = test system: NCI-H1650
# How it was run: as §1
# LOU-NH91 = test system: LOU-NH91
# How it was run: as §1
structure (smiles),measurement,setting,value
Oc1nc(-c2ccc(C(F)(F)F)cc2)nc2c1CSCC2 [XAV939] + Cc1nc(Nc2ncc(C(=O)Nc3c(C)cccc3Cl)s2)cc(N2CCN(CCO)CC2)n1 [Dasatinib] (partner 0.075 µM),relative viability,NCI-H1792; first compound 0.08 µM,0.877
same,relative viability,NCI-H1792; first compound 0.253 µM,0.809
same,relative viability,NCI-H1792; first compound 0.8 µM,0.87
same,relative viability,NCI-H1792; first compound 2.53 µM,0.725
same,relative viability,ChaGo-K-1; first compound 0.08 µM,0.654
same,relative viability,ChaGo-K-1; first compound 0.253 µM,0.639
same,relative viability,ChaGo-K-1; first compound 0.8 µM,0.587
same,relative viability,ChaGo-K-1; first compound 2.53 µM,0.56
same,relative viability,HCC-366; first compound 0.08 µM,0.598
same,relative viability,HCC-366; first compound 0.253 µM,0.589
same,relative viability,HCC-366; first compound 0.8 µM,0.824
same,relative viability,HCC-366; first compound 2.53 µM,0.598
same,relative viability,NCI-H2405; first compound 0.08 µM,0.221
same,relative viability,NCI-H2405; first compound 0.253 µM,0.225
same,relative viability,NCI-H2405; first compound 0.8 µM,0.214
same,relative viability,NCI-H2405; first compound 2.53 µM,0.229
same,relative viability,NCI-H460; first compound 0.08 µM,0.479
same,relative viability,NCI-H460; first compound 0.253 µM,0.533
same,relative viability,NCI-H460; first compound 0.8 µM,0.482
same,relative viability,NCI-H460; first compound 2.53 µM,0.467
same,relative viability,LCLC-97TM1; first compound 0.08 µM,0.981
same,relative viability,LCLC-97TM1; first compound 0.253 µM,0.851
same,relative viability,LCLC-97TM1; first compound 0.8 µM,0.964
same,relative viability,LCLC-97TM1; first compound 2.53 µM,0.977
same,relative viability,NCI-H1734; first compound 0.08 µM,0.501
same,relative viability,NCI-H1734; first compound 0.253 µM,0.476
same,relative viability,NCI-H1734; first compound 0.8 µM,0.419
same,relative viability,NCI-H1734; first compound 2.53 µM,0.357
same,relative viability,COR-L23; first compound 0.08 µM,0.461
same,relative viability,COR-L23; first compound 0.253 µM,0.424
same,relative viability,COR-L23; first compound 0.8 µM,0.505
same,relative viability,COR-L23; first compound 2.53 µM,0.444
same,relative viability,SK-LU-1; first compound 0.08 µM,0.166
same,relative viability,SK-LU-1; first compound 0.253 µM,0.147
same,relative viability,SK-LU-1; first compound 0.8 µM,0.211
same,relative viability,SK-LU-1; first compound 2.53 µM,0.188
same,relative viability,HCC-78; first compound 0.08 µM,0.37
same,relative viability,HCC-78; first compound 0.253 µM,0.398
same,relative viability,HCC-78; first compound 0.8 µM,0.338
same,relative viability,HCC-78; first compound 2.53 µM,0.399
same,relative viability,LK-2; first compound 0.08 µM,0.262
same,relative viability,LK-2; first compound 0.253 µM,0.31
same,relative viability,LK-2; first compound 0.8 µM,0.27
same,relative viability,LK-2; first compound 2.53 µM,0.399
same,relative viability,NCI-H1355; first compound 0.08 µM,0.569
same,relative viability,NCI-H1355; first compound 0.253 µM,0.495
same,relative viability,NCI-H1355; first compound 0.8 µM,0.507
same,relative viability,NCI-H1355; first compound 2.53 µM,0.356
same,relative viability,201T; first compound 0.08 µM,0.432
same,relative viability,201T; first compound 0.253 µM,0.385
same,relative viability,201T; first compound 0.8 µM,0.443
same,relative viability,201T; first compound 2.53 µM,0.366
same,relative viability,NCI-H2085; first compound 0.08 µM,0.288
same,relative viability,NCI-H2085; first compound 0.253 µM,0.196
same,relative viability,NCI-H2085; first compound 0.8 µM,0.285
same,relative viability,NCI-H2085; first compound 2.53 µM,0.204
same,relative viability,NCI-H1993; first compound 0.08 µM,0.52
same,relative viability,NCI-H1993; first compound 0.253 µM,0.52
same,relative viability,NCI-H1993; first compound 0.8 µM,0.557
same,relative viability,NCI-H1993; first compound 2.53 µM,0.535
same,relative viability,NCI-H838; first compound 0.08 µM,0.217
same,relative viability,NCI-H838; first compound 0.253 µM,0.256
same,relative viability,NCI-H838; first compound 0.8 µM,0.284
same,relative viability,NCI-H838; first compound 2.53 µM,0.212
same,relative viability,HARA; first compound 0.08 µM,0.229
same,relative viability,HARA; first compound 0.253 µM,0.201
same,relative viability,HARA; first compound 0.8 µM,0.275
same,relative viability,HARA; first compound 2.53 µM,0.256
same,relative viability,NCI-H520; first compound 0.08 µM,0.179
same,relative viability,NCI-H520; first compound 0.253 µM,0.17
same,relative viability,NCI-H520; first compound 0.8 µM,0.152
same,relative viability,NCI-H520; first compound 2.53 µM,0.193
same,relative viability,NCI-H3122; first compound 0.08 µM,0.877
same,relative viability,NCI-H3122; first compound 0.253 µM,0.786
same,relative viability,NCI-H3122; first compound 0.8 µM,0.789
same,relative viability,NCI-H3122; first compound 2.53 µM,0.181
same,relative viability,NCI-H1975; first compound 0.08 µM,0.305
same,relative viability,NCI-H1975; first compound 0.253 µM,0.264
same,relative viability,NCI-H1975; first compound 0.8 µM,0.286
same,relative viability,NCI-H1975; first compound 2.53 µM,0.234
same,relative viability,HCC-15; first compound 0.08 µM,0.633
same,relative viability,HCC-15; first compound 0.253 µM,0.463
same,relative viability,HCC-15; first compound 0.8 µM,0.601
same,relative viability,HCC-15; first compound 2.53 µM,0.54
same,relative viability,NCI-H1650; first compound 0.08 µM,0.331
same,relative viability,NCI-H1650; first compound 0.253 µM,0.323
same,relative viability,NCI-H1650; first compound 0.8 µM,0.263
same,relative viability,NCI-H1650; first compound 2.53 µM,0.288
same,relative viability,LOU-NH91; first compound 0.08 µM,0.519
same,relative viability,LOU-NH91; first compound 0.253 µM,0.5
same,relative viability,LOU-NH91; first compound 0.8 µM,0.501
same,relative viability,LOU-NH91; first compound 2.53 µM,0.526
